Consider 26 molecules from patent US10030016B2 (Sunesis Pharmaceuticals, Inc., priority 2009, dated 2018).

Counter-ions that a name gives are not always drawn. Like-named read-outs stand apart in the source and are kept apart here.

Assay [1] deals with phospho-akt (Thr308) in PC-3 cells. As to the kind of experiment: Inhibition of phospho-akt (Thr308) in PC-3 cells, MSD phospho-akt 308 ELISA kit. It counts as cell-based. The conditions noted are these: Homo sapiens, 2 hours, no serum, read-out: EC50. Summed up: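 PC-3 cells (15,000/well, overnight in 10% FBS medium) treated 2 h with three-fold diluted compounds in serum-free medium; DMSO high and 5 μM wortmannin low controls. Lysates captured on BSA-blocked MSD plates overnight at 4 °C, then 1 h antibody detection at RT; phospho-Akt Thr308 read by MSD electrochemiluminescence.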
A general note: An ELISA detects its analyte on a solid surface through an enzyme-linked reagent.

A further assay has as its target PDK1 (Homo sapiens (Human), UniProt O15530). As to the kind of experiment: PDK1 kinase assay (coupled PDK1/AKT/FAM-crosstide assay, IMAP fluorescence polarization). Type of assay: biochemical. The method, boiled down:
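GST-tagged PDK1 (aa 51-359, 0.75 nM) was coupled to unphosphorylated GST-AKT2 140-467-PIFtide (10 nM) and 100 nM FAM-crosstide at 40 μM ATP, in Tris pH 7.2 buffer, for 30 min at 25 °C. Crosstide phosphorylation was read by IMAP fluorescence polarization (ΔmP) and fitted with a 4-parameter curve.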
On the technique in general: Fluorescence polarisation rises when a labelled molecule tumbles more slowly, as on binding a larger partner.

The mark [2] stands for this setting: inhibition of P308 Akt in PC-3 cells, MSD.
Where [3] appears, read: inhibition of phospo-PDK1 in vitro.
The mark [4] stands for this setting: inhibition of P308 Akt in PC-3 cells using MSD.
Setting [5] is: PC-3, 2 h, inhibition of P308 Akt in PC-3 cells, MSD.

PDK1, sequence (O15530 51-359): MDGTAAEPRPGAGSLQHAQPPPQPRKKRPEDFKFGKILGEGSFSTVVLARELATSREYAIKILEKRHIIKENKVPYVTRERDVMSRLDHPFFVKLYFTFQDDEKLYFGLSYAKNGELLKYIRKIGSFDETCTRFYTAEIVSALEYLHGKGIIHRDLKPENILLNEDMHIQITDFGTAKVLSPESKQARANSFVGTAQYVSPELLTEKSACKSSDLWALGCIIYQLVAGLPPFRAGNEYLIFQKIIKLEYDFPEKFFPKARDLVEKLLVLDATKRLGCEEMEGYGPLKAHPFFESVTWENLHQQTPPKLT

By EC50 is commonly meant the midpoint of the concentration-response curve. Usually IC50 stands for the concentration that inhibits the measured activity by half. As for `Cc1cnc(/C=C2\C(=O)Nc3cc(/C=C/CNc4ncccc4C(=O)NCc4ccc(F)c(F)c4)ccc32)[nH]1` [Example 15.9, N-(3,4-Difluoro-benzyl)-2-((E)-3-{3-[1-(5-methyl-1H-imidazol-2-yl)-meth-(Z)-ylidene]-2-oxo-2,3-dihydro-1H-indol-6-yl}-allylamino)-nicotinamide], in assay [1] (setting [2]), the half-maximal effective concentration (EC50) was in the range of 1000 to 10000 nM. For the same molecule, the IC50 at PDK1 (setting [3]) is under 100 nM.
With `C[C@H](NC(=O)c1nc(C#N)cnc1NCc1ccc(-c2cnc(N)c(CCC3CCCNC3)n2)cc1)c1ccc(F)c(F)c1` (stereo partly shown) [Example 81], the EC50 in assay [1] (setting [4]) is 1000 to 10000 nM. The 50% inhibitory concentration (IC50) at PDK1 is under 100 nM.
On to `C[C@H](NC(=O)c1cc(C(F)(F)F)cnc1NCc1ccc(-c2cnc(N)cn2)cc1)c1ccc(F)c(F)c1` [Example 382, (S)-2-(4-(5-aminopyrazin-2-yl)benzylamino)-N-(1-(3,4-difluorophenyl)ethyl)-5-(trifluoromethyl)nicotinamide], for which, in assay [1] (setting [4]), the EC50 is under 1000 nM. At PDK1 (inhibition of PDK1 in vitro), this molecule displayed a half-maximal inhibitory concentration (IC50) of under 100 nM.
In the case of `Cc1nc2[nH]nc(N)c2cc1-c1ccc(CNc2ncc(C#N)nc2C(=O)N[C@@H](C)c2ccc(F)c(F)c2)cc1` [Example 400, (S)-3-(4-(3-amino-6-methyl-1H-pyrazolo[3,4-b]pyridin-5-yl)benzylamino)-6-cyano-N-(1-(3,4-difluorophenyl)ethyl)pyrazine-2-carboxamide], the EC50 in assay [1] (setting [4]) was in the range of 1000 to 10000 nM. For the same molecule, the half-inhibitory concentration (IC50) against PDK1 (inhibition of PDK1 in vitro) was under 100 nM.
For `N#Cc1cnc(NCc2ccc(-c3cnc(N)cn3)cc2)c(C(=O)NCc2ccc(F)c(F)c2)c1` [Example 377, 2-(4-(5-aminopyrazin-2-yl)benzylamino)-5-cyano-N-(3,4-difluorobenzyl) nicotinamide] the same measures were 1000 to 10000 nM and under 100 nM.
On to `Cn1ccc(Nc2ncnc3ccc(-c4ccc(CNc5ncccc5C(=O)NCc5ccc(F)c(F)c5)s4)cc23)n1` [Example 2.34, N-(3,4-difluorobenzyl)-2-(((5-(4-(1-methyl-1H-pyrazol-3-ylamino)quinazolin-6-yl)thiophen-2-yl)methyl)amino) nicotinamide], for which the EC50 in assay [1] (setting [2]) was over 10000 nM. This molecule also yielded a 50% inhibitory concentration (IC50) at PDK1 (setting [3]) of over 5000 nM.
Take `C[C@H](NC(=O)c1cc(C#N)cnc1NCc1ccc(-c2n[nH]c3ncnc(N)c23)cc1)c1ccc(F)cc1` [Example 96, 2-[4-(4-Amino-1H-pyrazolo [3,4-d]pyrimidin-3-yl)-benzylamino]-5-cyano-N-[(S)-1-(4-fluoro-phenyl)-ethyl]-nicotinamide]: the concentration for a half-maximal effect (EC50) in assay [1] (setting [4]) is 1000 to 10000 nM. The molecule further came in with an IC50 on PDK1 (inhibition of PDK1 in vitro) of under 100 nM.
Take `C[C@H](NC(=O)c1cccnc1NCc1ccc(-c2cn3ccnc3cn2)s1)c1ccc(F)cc1` [Example 2.8, (S)-N-(1-(4-fluorophenyl)ethyl)-2-(((5-(imidazo[1,2-a]pyrazin-6-yl)thiophen-2-yl)methyl)amino)nicotinamide]: the EC50 in assay [1] (setting [2]) is over 10000 nM. The half-maximal inhibitory concentration (IC50) on PDK1 (setting [3]) was 1000 to 5000 nM.
In the case of `C#CCNC(=O)c1cccnc1NCc1cc(OC(C)C)cc(-c2c[nH]c3ncc(C(=O)NC4CC4)cc23)c1` [Example 4.1.16, N-cyclopropyl-3-[3-(propan-2-yloxy)-5-({[3-(prop-2-yn-1-ylcarbamoyl)pyridin-2-yl]amino}methyl)phenyl]-1H-pyrrolo[2,3-b] pyridine-5-carboxamide], the EC50 in assay [1] (setting [2]) fell in the range of 1000 to 10000 nM. Besides, at PDK1 (setting [3]), the half-inhibitory concentration (IC50) lay in the range of 100 to 1000 nM.
For `Nc1ncnc2ccc(-c3ccc(CNc4ncc(NS(=O)(=O)C(F)(F)F)cc4C(=O)NCc4ccc(F)c(F)c4)s3)cc12` [Example 8.6.3] the same measures were 1000 to 10000 nM and 100 to 1000 nM.
With `Nc1ncnc2ccc(-c3ccc(CNc4ncccc4C(=O)NCc4ccc(Cl)cc4)s3)cc12` [Example 3.22, 2-({[5-(4-aminoquinazolin-6-yl)thiophen-2-yl]methyl}amino)-N-(4-chlorobenzyl)pyridine-3-carboxamide (TFA salt)], the EC50 in assay [1] (setting [5]) is over 10000 nM. On PDK1 (setting [3]), this molecule came in with an IC50 of 100 to 1000 nM.
For the molecule `C[C@H](NC(=O)c1cc(C#N)cnc1NCc1ccc(-c2cnc3[nH]c(=O)[nH]c3c2)cc1F)c1ccc(F)cc1` [Example 126, (S)-5-cyano-2-(2-fluoro-4-(2-oxo-2,3-dihydro-1H-imidazo[4,5-b]pyridin-6-yl)benzyl-amino)-N-(1-(4-fluorophenyl)ethyl) nicotinamide], the concentration giving a half-maximal response (EC50) in assay [1] (setting [4]) was under 1000 nM. On PDK1 (inhibition of PDK1 in vitro), the IC50 is under 100 nM.
As for `Cn1cc(C(=O)NCc2ccc(F)c(F)c2)c(NCc2ccc(-c3ccc4ncnc(N)c4c3)s2)n1` [Ex. 11.1], the EC50 in assay [1] (setting [2]) lay in the range of 1000 to 10000 nM. The concentration for half-maximal inhibition (IC50) on PDK1 (setting [3]) is under 100 nM.
`Nc1ncnc2ccc(-n3cc(CNc4ncccc4C(=O)NCc4ccc(F)c(F)c4)nn3)cc12` [Ex. 9.1, 2-((1-(4-aminoquinazolin-6-yl)-1H-1,2,3-triazol-4-yl)methylamino)-N-(3,4-difluorobenzyl)nicotinamide]: in assay [1] (setting [2]), the EC50 was over 10000 nM. The molecule also yielded a half-inhibitory concentration (IC50) at PDK1 (setting [3]) of 100 to 1000 nM.
On to `O=C(NCc1ccc(F)c(F)c1)c1cccnc1NCc1ccc(-c2c[nH]c3ncccc23)s1` [Example 1.17, 2-(((5-(1H-pyrrolo[2,3-b]pyridin-3-yl)thiophen-2-yl)methyl)amino)-N-(3,4-difluorobenzyl)nicotinamide], for which the EC50 in assay [1] (setting [5]) is over 10000 nM. For the same molecule, on PDK1 (setting [3]), the IC50 is 100 to 1000 nM.
`C[C@H](NC(=O)c1cccnc1NCc1ccc(-c2cn(C3CCC3)c3ncnc(N)c23)s1)c1ccc(F)cc1` [Example 345]: the concentration giving a half-maximal response (EC50) in assay [1] (PC-3, 2 h, inhibition of P308 Akt in PC-3 cells using MSD) was under 1000 nM. This molecule gave an IC50 at PDK1 (inhibition of PDK1 in vitro) of 100 to 1000 nM.
As for `CC(C)Oc1cc(CNc2ncccc2C(=O)NCC2CC2)cc(-c2c[nH]c3ncc(C(=O)NC4CC4)cc23)c1` [Example 4.1.11, N-cyclopropyl-3-{3-[({3-[(cyclopropylmethyl)carbamoyl]pyridin-2-yl}amino)methyl]-5-(propan-2-yloxy)phenyl}-1H-pyrrolo[2,3-b] pyridine-5-carboxamide], in assay [1] (setting [2]), the concentration for a half-maximal effect (EC50) lay within 1000 to 10000 nM. This molecule returned an IC50 on PDK1 (setting [3]) of 100 to 1000 nM.
For `C[C@H](NC(=O)c1cc(C(F)(F)F)cnc1NCc1ccc(-c2ccc3ncnc(N)c3c2)s1)c1ccc(F)c(F)c1` [Example 8.12.6, 2-({[5-(4-aminoquinazolin-6-yl)thiophen-2-yl]methyl}amino)-N-[(1S)-1-(3,4-difluorophenyl)ethyl]-5-(trifluoromethyl)pyridine-3-carboxamide], in assay [1] (setting [2]), the half-maximal effective concentration (EC50) is under 1000 nM. On PDK1 (setting [3]), this molecule gave an IC50 of under 100 nM.
For `N#Cc1cnc(NCc2ccc(-c3ccc4ncnc(N)c4c3)s2)c(C(=O)NCc2ccc(F)c(F)c2)n1` [Example 3.80, 3-(((5-(4-aminoquinazolin-6-yl)thiophen-2-yl)methyl)amino)-6-cyano-N-(3,4-difluorobenzyl)pyrazine-2-carboxamide (TFA salt)] the same measures were under 1000 nM and 100 to 1000 nM.
In the case of `Nc1n[nH]c2ncc(-c3ccc(CNc4ncc(C(F)(F)F)cc4C(=O)Nc4cncc(F)c4)cc3)cc12` [Example 306, 2-(4-(3-amino-1H-pyrazolo [3,4-b]pyridin-5-yl)benzylamino)-N-(5-fluoropyridin-3-yl)-5-(trifluoromethyl)nicotinamide], in assay [1] (setting [4]), the EC50 is under 1000 nM. At PDK1 (inhibition of PDK1 in vitro), this molecule registered an IC50 of under 100 nM.
Take `C[C@H](NC(=O)c1cc(C#N)cnc1NCc1ccc(-c2ccnc(N)n2)cc1)c1ccc(F)cc1` [Example 117, (S)-2-(4-(2-amino-pyrimidin-4-yl)benzylamino)-5-cyano-N-(1-(4-fluorophenyl)ethyl) nicotinamide]: in assay [1] (setting [4]), the 50% effective concentration (EC50) fell in the range of 1000 to 10000 nM. The molecule also returned a 50% inhibitory concentration (IC50) against PDK1 (inhibition of PDK1 in vitro) of over 5000 nM.
As to `Nc1cnc(-c2ccc(CNc3nccc4ncn(Cc5ccc(F)c(F)c5)c(=O)c34)cc2)cn1` [Example 381, 5-(4-(5-aminopyrazin-2-yl)benzylamino)-3-(3,4-difluorobenzyl)pyrido[4,3-d] pyrimidin-4(3H)-one], the EC50 in assay [1] (setting [4]) fell in the range of 1000 to 10000 nM. The IC50 against PDK1 (inhibition of PDK1 in vitro) is under 100 nM.
For `O=C(NCc1ccc(F)c(F)c1)c1cccnc1NCc1ccc(-c2c[nH]c3ncncc23)s1` [Example 4.7, 2-(((5-(7H-pyrrolo[2,3-d]pyrimidin-5-yl)thiophen-2-yl)methyl)amino)-N-(3,4-difluorobenzyl)nicotinamide], the EC50 in assay [1] (setting [2]) lay in the range of 1000 to 10000 nM. In addition, the IC50 against PDK1 (setting [3]) lay in the range of 100 to 1000 nM.
On to `Cc1ccc(CNC(=O)c2cccnc2NCc2ccc(-c3ccc4ncnc(N)c4c3)s2)o1` [Example 3.17, 2-({[5-(4-aminoquinazolin-6-yl)thiophen-2-yl]methyl}amino)-N-[(5-methylfuran-2-yl)methyl] pyridine-3-carboxamide (TFA salt)], for which, in assay [1] (setting [5]), the 50% effective concentration (EC50) is over 10000 nM. Moreover, at PDK1 (setting [3]), the half-inhibitory concentration (IC50) was in the range of 100 to 1000 nM.
With `Nc1n[nH]c2ncc(-c3ccc(CNc4ncc(C(F)(F)F)cc4C(=O)Nc4ccc(F)cc4F)cc3)cc12` [Example 291, 2-(4-(3-amino-1H-pyrazolo [3,4-b]pyridin-5-yl)benzylamino)-N-(2,4-difluorophenyl)-5-(trifluoromethyl)nicotinamide], the 50% effective concentration (EC50) in assay [1] (setting [4]) was under 1000 nM. Also, the half-inhibitory concentration (IC50) at PDK1 (inhibition of PDK1 in vitro) is under 100 nM.
For `O=C(NCc1ccc(F)c(F)c1)c1cccnc1NCc1cnc(-c2c[nH]c3ncccc23)s1` [Ex. 6.10, N-(3,4-difluorobenzyl)-2-({[2-(1H-pyrrolo[2,3-b]pyridin-3-yl)-1,3-thiazol-5-yl]methyl}amino) pyridine-3-carboxamide], the 50% effective concentration (EC50) in assay [1] (setting [2]) is 1000 to 10000 nM. This molecule returned a half-maximal inhibitory concentration (IC50) against PDK1 (setting [3]) of 100 to 1000 nM.
